Measured values as given in paper PMC10301092, “New Insights into the Opioid Analgesic Profile of cis-(−)-N-Normetazocine-derived Ligands” (Molecules, 2023).
Values joined by “and” are separate entries in the source; they are usually repeats but may differ in a detail not shown here. Identical values can stand only once. Like-named read-outs stand apart in the source and are kept apart here.

Columns and labels:
[1] = biological target: T1, sigma-1 receptor (σ1R) (Homo sapiens, UniProt Q99720); experiment: σ1R radioligand binding assay
Description: (§1) The radioligand binding assays and the data analysis were performed as previously reported [24].

[2] = biological target: T2, μ opioid receptor (MOR) (Homo sapiens, UniProt P35372); experiment: MOR radioligand binding assay
[3] = biological target: δ opioid receptor (DOR) (Homo sapiens, UniProt P41143); experiment: DOR radioligand binding assay
[4] = biological target: T3, κ opioid receptor (KOR) (Homo sapiens, UniProt P41145); experiment: KOR radioligand binding assay
[5] = biological target: T4, sigma-2 receptor (σ2R) (Homo sapiens, UniProt Q5BJF2); experiment: σ2R radioligand binding assay
Description: as §1

[6] = biological target: T5, MOR (Mus musculus, UniProt P42866); experiment: MVD assay, Ke with naloxone / against DAMGO (MOR); format: cell-based; conditions: for functional profile at MOR: MVD, result in words; for Ke ± SEM (nM) Naloxone (MOR): Ke of naloxone against the listed agonist in isolated MVD, single-dose method, n = 5–9
T5 construct: vasa deferentia were removed from the mice; from tissue; host or cells: vas deferens of male NMRI mice
Description: (§2) Isolated mouse vas deferens. The preparation of MVD was carried out as previously described by Hughes et al. [25] with minor modifications. Briefly, vasa deferentia were removed from the mice and unsheathed from the surrounding fat, connective tissue, and blood vessels. […] The upper end of the isolated organ was attached to a transducer using a thread and connected to a computer via an amplifier (PowerLab 4/20, ADInstruments, Castle Hill, NSW, Australia). The resting tension was adjusted to 0.1 g. Electrical field stimulation was applied through trains of 10 Hz with 10 rectangular impulses at a 1 ms pulse width, 9 V/cm (i.e., supramaximal intensity), repeated with 0.1 Hz (Stimulator 88, Grass Medical Instruments, Quincy, MA, USA).
(§3) Data analysis. The efficacy of each test compound to inhibit electrically evoked contraction was measured as the percentage change from baseline. […] Data are presented as the mean ± SEM. Ke values were calculated using dose ratio and the single-dose method [26]. Statistical analysis was performed with one-way ANOVA, followed by the Newman–Keuls post hoc test.

[7] = tested on: mouse vas deferens (MVD); experiment: Isolated mouse vas deferens (MVD): inhibition of electrically evoked contractions; format: cell-based; conditions: for IC50: 50% inhibitory concentration on electrically evoked contractions of isolated MVD, n = 5–9
Description: Animals. Male NMRI mice (Toxicoop Zrt., Budapest, Hungary) weighing 35–45 g were kept in groups in a temperature- and humidity-controlled room under a 12 h light/dark cycle and with food and water available ad libitum. Each animal was used for one experiment.
Isolated mouse vas deferens. The preparation of MVD was carried out as previously described by Hughes et al. with minor modifications. Briefly, vasa deferentia were removed from the mice and unsheathed from the surrounding fat, connective tissue, and blood vessels. They were then suspended between an upper (ring) and a lower (straight) electrode positioned at 5.5 cm, in 5 mL organ baths containing Krebs solution (concentrations in mM: NaCl, 118.0; NaHCO3, 25.0; KCl, 4.7; KH2PO4, 1.2; glucose, 11.0; CaCl2, 2.5; and MgSO4, 1.2) aerated with a gas mixture of 95% O2 and 5% CO2 and at a constant temperature of 36 °C. The upper end of the isolated organ was attached to a transducer using a thread and connected to a computer via an amplifier (PowerLab 4/20, ADInstruments, Castle Hill, NSW, Australia). The resting tension was adjusted to 0.1 g. Electrical field stimulation was applied through trains of 10 Hz with 10 rectangular impulses at a 1 ms pulse width, 9 V/cm (i.e., supramaximal intensity), repeated with 0.1 Hz (Stimulator 88, Grass Medical Instruments, Quincy, MA, USA).
Experimental paradigms. The experimental design of MVD required a 50 min equilibration period under electrical field stimulation, during which Krebs solution was changed every 5 min. After the equilibration period, test compounds were added cumulatively, allowing a minimum of 2 min between doses. To determine the test compounds’ dissociation constant, Ke, vasa deferentia were preincubated with the antagonist naloxone, and without washing a single concentration of the agonist test, the compound was added.
Data analysis. The efficacy of each test compound to inhibit electrically evoked contraction was measured as the percentage change from baseline. […] Data are presented as the mean ± SEM. Ke values were calculated using dose ratio and the single-dose method. […]

[8] = biological target: T6, KOR (Mus musculus, UniProt P33534); experiment: MVD assay, Ke with nor-BNI (KOR); format: cell-based; conditions: Ke of nor-BNI against the listed agonist in isolated MVD; n = 5–9
T6 construct: vasa deferentia were removed from the mice; from tissue; host or cells: vas deferens of male NMRI mice
Description: as §2, §3

[9] = tested on: Male Swiss CD1 mice; experiment: Thermal acute pain model (radiant heat tail-flick test); format: in vivo, mouse
Description: Thermal acute pain model (tail-flick test). Male Swiss CD1 mice (Envigo Laboratories, S. Pietro al Natisone (UD)) weighing 25–30 g were housed at six per cage, kept at a constant room temperature (25 ± 1 °C), under a 12:12 h light-and-dark cycle with food and water ad libitum. Each mouse was used for only one experiment. […] The radiant heat tail-flick test consists of irradiation of the lower third of the tail with an infrared source (Ugo Basile, Comerio, Italy). The day before the experiment, performed at room temperature (25 ± 1 °C), mice were habituated to the procedure for measuring the nociception threshold. The basal predrug latency was established between 3 and 6 s and was calculated as the average of the first three measurements, which were performed at 5 min intervals. A cutoff latency of 15 s was established to minimize damage to the tail. All tested compounds were dissolved in pyrogen-free isotonic saline (Baxter Healthcare, Deerfield, IL, USA) and DMSO (5%) and were administered to mice i.p. Post-treatment tail-flick latencies (TFLs) were determined at 15, 30, 45, 60, and 90 min after i.p. injection.

[10] = tested on: Male Wistar rats; experiment: Inflammatory pain model (CFA-evoked hyperalgesia, Randall–Selitto paw pressure threshold); format: in vivo, rat; conditions: s.c.
Description: Inflammatory pain model (CFA-evoked hyperalgesia). Male Wistar rats (190–250 g) (Toxicoop Zrt., Budapest, Hungary) under brief isoflurane (Willy Rüsch GmbH, Böblingen, Germany) anesthesia received i.pl. injection of 0.15 mL complete Freund’s adjuvant (CFA) (source), a water-in-oil emulsion of killed mycobacterium, into the right hind paw. The experimental procedures were performed as described previously.
Experimental paradigms of CFA-evoked hyperalgesia. The measurement of the effect of the test compound was carried out 4 days following i.pl. CFA injection as described previously. Briefly, the baseline (pretest compound) of the paw pressure threshold (PPT) of both inflamed and noninflamed paws was determined. Next, the drug or vehicle was s.c. administered at a volume of 5 mL/kg body weight. Then, the response threshold to mechanical pressure stimulation of inflamed and noninflamed paws was given as paw pressure thresholds (PPTs) and measured at 30 and 60 min post administration using an arbitrary cutoff weight of twice the baseline.

[11] = biological target: T7, DOR (Mus musculus, UniProt P32300); experiment: MVD assay, Ke with naltrindole (DOR); format: cell-based; conditions: Ke of naltrindole against the listed agonist in isolated MVD; n = 5–9
T7 construct: vasa deferentia were removed from the mice; from tissue; host or cells: vas deferens of male NMRI mice
Description: as §2
Experimental paradigms. The experimental design of MVD required a 50 min equilibration period under electrical field stimulation, during which Krebs solution was changed every 5 min. […]
Data analysis. The efficacy of each test compound to inhibit electrically evoked contraction was measured as the percentage change from baseline. […] Ke values were calculated using dose ratio and the single-dose method [26]. […]

[12] = biological target: T3, κ opioid receptor (KOR); conditions: read-out: Ki (nM) ± SD KOR; cited from earlier work
[13] = biological target: T1, sigma-1 receptor (σ1R); conditions: read-out: Ki (nM) ± SD σ1R; cited from earlier work
[14] = biological target: T4, sigma-2 receptor (σ2R); conditions: read-out: Ki (nM) ± SD σ2R; cited from earlier work
[15] = biological target: T2, μ opioid receptor (MOR); conditions: read-out: Ki (nM) ± SD MOR; cited from earlier work
[16] = mean ± SD of at least two experiments in duplicate, read-out: Ki (nM) ± SD MOR
[17] = mean ± SD of at least two experiments in duplicate, read-out: Ki (nM) ± SD DOR
[18] = mean ± SD of at least two experiments in duplicate, read-out: Ki (nM) ± SD KOR

T5 sequence (P42866 whole entry): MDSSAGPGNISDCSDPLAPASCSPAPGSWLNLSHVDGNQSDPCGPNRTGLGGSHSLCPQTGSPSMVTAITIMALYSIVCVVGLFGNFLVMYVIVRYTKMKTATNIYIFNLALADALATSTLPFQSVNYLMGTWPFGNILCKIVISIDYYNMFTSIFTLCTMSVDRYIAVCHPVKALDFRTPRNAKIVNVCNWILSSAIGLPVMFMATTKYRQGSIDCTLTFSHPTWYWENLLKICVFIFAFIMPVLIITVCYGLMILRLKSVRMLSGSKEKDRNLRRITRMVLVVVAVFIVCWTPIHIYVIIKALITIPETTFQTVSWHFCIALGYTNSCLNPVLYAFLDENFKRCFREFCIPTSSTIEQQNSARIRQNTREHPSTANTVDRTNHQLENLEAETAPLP
T1 sequence (Q99720 whole entry, species assumed): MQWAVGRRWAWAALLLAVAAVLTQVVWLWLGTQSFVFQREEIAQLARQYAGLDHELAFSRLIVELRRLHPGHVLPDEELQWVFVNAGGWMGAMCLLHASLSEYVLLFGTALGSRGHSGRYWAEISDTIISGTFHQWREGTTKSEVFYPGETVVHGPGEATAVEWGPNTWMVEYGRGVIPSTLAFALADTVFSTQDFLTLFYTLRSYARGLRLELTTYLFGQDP
T2 sequence (P35372 whole entry, species assumed): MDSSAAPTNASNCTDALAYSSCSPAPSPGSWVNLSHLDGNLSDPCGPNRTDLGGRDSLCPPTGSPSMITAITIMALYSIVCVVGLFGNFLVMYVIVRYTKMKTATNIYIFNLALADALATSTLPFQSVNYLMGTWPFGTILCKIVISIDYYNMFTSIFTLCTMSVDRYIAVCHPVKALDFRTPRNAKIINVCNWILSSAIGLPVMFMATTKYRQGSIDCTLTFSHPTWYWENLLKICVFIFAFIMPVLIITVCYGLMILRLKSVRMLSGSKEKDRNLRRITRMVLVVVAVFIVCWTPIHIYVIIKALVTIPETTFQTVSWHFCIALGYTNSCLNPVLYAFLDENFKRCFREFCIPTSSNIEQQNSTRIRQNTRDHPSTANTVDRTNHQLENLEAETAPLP
Sequence of δ opioid receptor (DOR) (P41143 whole entry): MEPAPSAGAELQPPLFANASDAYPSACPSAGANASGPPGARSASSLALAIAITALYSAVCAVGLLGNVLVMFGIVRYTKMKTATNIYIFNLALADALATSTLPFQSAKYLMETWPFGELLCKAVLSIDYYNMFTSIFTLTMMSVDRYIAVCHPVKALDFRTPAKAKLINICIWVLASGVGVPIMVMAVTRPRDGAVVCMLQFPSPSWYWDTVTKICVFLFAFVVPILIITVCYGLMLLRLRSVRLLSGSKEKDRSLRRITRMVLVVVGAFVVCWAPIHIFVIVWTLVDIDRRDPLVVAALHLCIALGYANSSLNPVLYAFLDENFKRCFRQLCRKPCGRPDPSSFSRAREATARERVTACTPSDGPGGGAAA
T4 sequence (Q5BJF2 whole entry): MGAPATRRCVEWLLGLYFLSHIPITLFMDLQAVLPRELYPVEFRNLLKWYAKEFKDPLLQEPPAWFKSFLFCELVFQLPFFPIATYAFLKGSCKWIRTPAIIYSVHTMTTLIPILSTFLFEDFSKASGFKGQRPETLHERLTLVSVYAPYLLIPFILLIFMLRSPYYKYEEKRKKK
T6 sequence (P33534 whole entry): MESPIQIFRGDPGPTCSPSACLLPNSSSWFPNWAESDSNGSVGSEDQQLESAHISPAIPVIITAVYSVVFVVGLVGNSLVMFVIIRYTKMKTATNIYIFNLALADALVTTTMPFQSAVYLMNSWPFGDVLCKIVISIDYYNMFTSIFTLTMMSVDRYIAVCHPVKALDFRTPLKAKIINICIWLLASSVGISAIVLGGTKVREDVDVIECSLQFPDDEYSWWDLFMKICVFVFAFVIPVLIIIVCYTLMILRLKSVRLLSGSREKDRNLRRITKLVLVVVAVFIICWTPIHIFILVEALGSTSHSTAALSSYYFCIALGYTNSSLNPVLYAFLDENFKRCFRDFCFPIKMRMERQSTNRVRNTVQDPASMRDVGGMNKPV
T3 sequence (P41145 whole entry): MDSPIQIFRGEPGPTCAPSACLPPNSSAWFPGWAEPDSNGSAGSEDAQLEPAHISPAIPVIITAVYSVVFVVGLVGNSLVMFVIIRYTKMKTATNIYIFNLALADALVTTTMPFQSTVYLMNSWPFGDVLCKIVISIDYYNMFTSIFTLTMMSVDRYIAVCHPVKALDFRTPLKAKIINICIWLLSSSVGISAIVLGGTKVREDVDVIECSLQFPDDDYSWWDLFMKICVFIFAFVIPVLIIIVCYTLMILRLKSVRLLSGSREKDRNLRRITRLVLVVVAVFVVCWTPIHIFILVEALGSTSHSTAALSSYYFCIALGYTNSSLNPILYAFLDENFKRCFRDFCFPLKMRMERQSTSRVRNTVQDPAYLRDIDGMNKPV
T7 sequence (P32300 whole entry): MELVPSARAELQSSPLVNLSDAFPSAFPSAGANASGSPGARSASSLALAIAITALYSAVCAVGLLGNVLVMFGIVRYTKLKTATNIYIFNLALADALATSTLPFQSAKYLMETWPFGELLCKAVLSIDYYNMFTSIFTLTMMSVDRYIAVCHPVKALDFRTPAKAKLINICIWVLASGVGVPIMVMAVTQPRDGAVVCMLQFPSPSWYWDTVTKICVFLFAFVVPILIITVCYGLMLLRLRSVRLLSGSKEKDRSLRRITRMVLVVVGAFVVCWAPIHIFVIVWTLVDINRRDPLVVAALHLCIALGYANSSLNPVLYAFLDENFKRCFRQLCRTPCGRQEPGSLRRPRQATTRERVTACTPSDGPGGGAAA

## CN1CCN(CCc2ccc(Cl)c(Cl)c2)CC1 [BD-1063, reference compound]
[1]; mean ± SD of at least two experiments in duplicate, read-out: Ki (nM) ± SD σ1R
  Ki: 14 ± 2.7 nM

## C[C@H]1[C@H]2Cc3ccc(O)cc3[C@]1(C)CCN2CCC(=O)Nc1ccccc1N [Compound 3, N-(2-aminophenyl)-3-((2R,6R,11R)-8-hydroxy-6,11-dimethyl-1,4,5,6-tetrahydro-2,6-methanobenzo[d]azocin-3(2H)-yl)propanamide]
[2]
  Ki: 5.96 ± 0.08 nM
[3]
  Ki: 155 ± 1.5 nM
[4]
  Ki: 93 ± 0.63 nM
[1]
  Ki: > 10000 nM
[5]
  Ki: > 10000 nM
[6]
  functional profile at MOR: antagonist

## C[C@@H]1[C@@H]2Cc3ccc(O)cc3[C@@]1(C)CCN2CCC(=O)Nc1ccccc1N [Compound 4, N-(2-aminophenyl)-3-((2S,6S,11S)-8-hydroxy-6,11-dimethyl-1,4,5,6-tetrahydro-2,6-methanobenzo[d]azocin-3(2H)-yl)propanamide]
[2]
  Ki: 408 ± 11 nM
[3]
  Ki: 3120 ± 73 nM
[4]
  Ki: 154 ± 6 nM
[1]
  Ki: 729 ± 168 nM
[5]
  Ki: > 10000 nM

## C[C@H]1[C@H]2Cc3ccc(O)cc3[C@]1(C)CCN2CCCC(=O)Nc1ccccc1N [Compound 5, N-(2-aminophenyl)-4-((2R,6R,11R)-8-hydroxy-6,11-dimethyl-1,4,5,6tetrahydro-2,6-methanobenzo[d]azocin-3(2H)-yl)butanamide]
[2]; [16]
  Ki: 479 ± 10 nM
[3]; [17]
  Ki: 1030 ± 16 nM
[4]; [18]
  Ki: 970 ± 21 nM
[1]
  Ki: > 10000 nM
[5]
  Ki: > 10000 nM

## C[C@@H]1[C@@H]2Cc3ccc(O)cc3[C@@]1(C)CCN2CCCC(=O)Nc1ccccc1N [Compound 6, N-(2-aminophenyl)-4-((2S,6S,11S)-8-hydroxy-6,11-dimethyl-1,4,5,6tetrahydro-2,6-methanobenzo[d]azocin-3(2H)-yl)butanamide]
[2]; [16]
  Ki: 810 ± 15 nM
[3]; [17]
  Ki: 4190 ± 60 nM
[4]; [18]
  Ki: 2455 ± 11 nM
[1]
  Ki: 857 ± 212 nM
[5]
  Ki: > 10000 nM

## C[C@H]1[C@H]2Cc3ccc(O)cc3[C@]1(C)CCN2CCC(=O)Nc1ccccn1 [Compound 7, 3-((2R,6R,11R)-8-hydroxy-6,11-dimethyl-1,4,5,6-tetrahydro-2,6-methanobenzo[d]azocin-3(2H)-yl)-N-(pyridin-2-yl)propanamide]
[2]
  Ki: 1.49 ± 0.24 nM
[3]
  Ki: 138 ± 5 nM
[4]
  Ki: 64 ± 7 nM
[1]
  Ki: > 10000 nM
[5]
  Ki: > 10000 nM
[7]; Mus musculus
  IC50: 66.88 ± 0.38 nM
[7]; result in words
  effect on electrically evoked MVD smooth muscle contractions: concentration-dependent inhibitory effect
[6]
  Ke ± SEM (nM) Naloxone (MOR): 2.42 ± 0.45 nM
  functional profile at MOR: agonist
[8]
  Ke ± SEM (nM) Nor-BNI (KOR): 68.18 ± 15.98 nM
[9]; i.p., 3, 4, and 5 mg/kg, compared with vehicle group
  effect on mean tail-flick latency: increased the mean tail-flick latency
[9]; tail-flick, after i.p. injection
  time of highest antinociceptive effect: 45 min and 30 to 45 min
[10]; 5000 and 2500 µg/kg, at 30 and 60 min
  restoring hyperalgesia of inflamed paws (PPT): effective
[10]; in certain doses, compared with vehicle
  effect on noninflamed PPT: significantly increase the noninflamed PPT
[10]; lower doses of the range 625–5000 µg/kg
  restoring hyperalgesia of inflamed paws (PPT): tendency of antinociceptive effect

## C[C@@H]1[C@@H]2Cc3ccc(O)cc3[C@@]1(C)CCN2CCC(=O)Nc1ccccn1 [Compound 8, 3-((2S,6S,11S)-8-hydroxy-6,11-dimethyl-1,4,5,6-tetrahydro-2,6-methanobenzo[d]azocin-3(2H)-yl)-N-(pyridin-2-yl)propanamide]
[2]
  Ki: 563 ± 23 nM
[3]
  Ki: > 10000 nM
[4]
  Ki: 1380 ± 20 nM
[1]
  Ki: 2510 ± 737 nM
[5]
  Ki: > 10000 nM

## CC1(C)SSC(C)(C)[C@@H](NC(=O)[C@@H](N)Cc2ccc(O)cc2)C(=O)NCC(=O)N[C@@H](Cc2ccccc2)C(=O)N[C@H]1C(=O)O [DPDPE]
[8]
  Ke ± SEM (nM) Nor-BNI (KOR): 2.57 ± 1.81 nM

## CC[C@@]12CCN(CC3CC3)C(C(=O)c3ccc(O)cc31)[C@@H]2C [EKC, reference compound]
[7]
  IC50: 14.1 ± 0.69 nM
[6]
  Ke ± SEM (nM) Naloxone (MOR): 8.82 ± 0.52 nM
[11]
  Ke ± SEM (nM) Naltrindole (DOR): 11.47 ± 5.35 nM
[8]
  Ke ± SEM (nM) Nor-BNI (KOR): 1.76 ± 0.35 nM

## C[C@H]1[C@H]2Cc3ccc(O)cc3[C@]1(C)CCN2CCC(=O)Nc1ccccc1 [LP1]
[2]; ratio of Ki DOR to Ki MOR
  Ki Ratios DOR/MOR: 35.1
[2]; ratio of Ki KOR to Ki MOR
  Ki Ratios KOR/MOR: 132.5
[12]
  Ki: 110 ± 6 nM
[13]
  Ki: 149 ± 4 nM
[14]
  Ki: 1680 nM

## CCC(=O)N(CC)c1ccccc1 [N-ethyl-N-phenyl-propanamide]
[15]
  Ki: 136 nM

## CCC(=O)N(C)c1ccccc1 [N-methyl-N-phenyl-propanamide]
[15]
  Ki: 65 nM
